From patent US20260265175A1, “METHOD FOR OBTAINING ORGANIC ACIDS FROM AN AQUEOUS MOTHER LIQUOR” (Covestro Deutschland AG, priority 2022, published 2026)

Experiments:
[1] = Precipitation of 2-aminobenzoic acid (oAB) from aqueous solution as metal compound; residual oAB in supernatant by HPLC; format: physicochemical; conditions: value is the detection limit
Text: The pH was adjusted to about 3.5 with a 1M NaOH solution (corresponding to the isoelectric point of oAB). […] The solid (Cu(oAB)2, Fe(oAB)2 and/or Mn(oAB)2) was separated from the liquid phase by centrifugation.

[2] = Cu(OH)2 roughly stoichiometric, pH 4.5, starting solution 12 g/L

SMILES: Nc1ccccc1C(=O)O [oAB, 2-Aminobenzoic acid]
- oAB concentration in aqueous supernatant after precipitation of the metal compound of the organic acid (sample A) ([1]; CuSO4, FeSO4 or MnSO4, metal salt:oAB 1:2, pH about 3.5, room temperature, starting solution 5 g/L): < 0.05 goAB/L
- oAB concentration in liquid phase after precipitation with recycled metal hydroxide (sample C) ([1]; after addition both of Fe(OH)2 and Cu(OH)2, pH 3.5, starting solution 5 g/L): < 0.05 goAB/L

SMILES: O=C(O)CCCCC(=O)O [adipic acid, Adipic acid]
- adipic acid concentration in liquid phase after precipitation with recycled Cu(OH)2 (sample C) [2]: 3 g/L
